{"source": "patent US8563261B2", "about": "“Method of diagnosing and treating interstitial cystitis” (The Trustees of the University of Pennsylvania, priority 2009, dated 2013)", "key": {"[1]": {"test_system": "cultured urothelial cells", "assay": "Click-iT EdU assay of newly synthesized DNA", "type": "cell-based", "conditions": "ET-1 10 nM (25 ng/ml) vs control", "excerpt": "Click-iT EdU assay (Invitrogen) was used to detect and quantify newly synthesized DNA. […] In Click-iT assay, EdU can be detected by green fluorescent dye and nuclei can be detected by blue fluorescent dye. Using fluorescent microplate reader (Synergy2, BioTek) both green and blue fluorescent signal were detected and quantified as shown in the bar graph of FIG. 3)."}, "[2]": {"test_system": "human primary urothelial cells", "assay": "growth of cultured human primary urothelial cells (proliferation assay)", "type": "cell-based", "conditions": "20 μM ET-1", "excerpt": "Control cultures receive only the vehicle."}, "[3]": {"test_system": "rabbit primary urothelial cells", "conditions": "ET-1 at 20 μM", "method": "Briefly, explanted epithelial cells propagated from fresh biopsy specimens are grown in DMEM-F12 with 10% heat-inactivated fetal bovine serum, 1% antibiotic/antimycotic, 1% L-glutamine, 1.0 unit/ml insulin (all from Sigma), and 5 μg/ml human epidermal growth factor at 37° C. in a humidified atmosphere of 5% CO2 and 95% air. […] Cell proliferation is assessed also by ^3H-thymidine incorporation and by cell counting using a haemocytometer. ET-1 samples are diluted at varying concentrations in serum-free MEM (containing only glutamine and antibiotics) and applied to cells. Control cultures receive only the vehicle. Cells are fed with serum-free medium for the proliferation assay.\nCultures are exposed to 1 μCi per well ^3H-thymidine (1 Ci=37 GiBg) for 4 hrs and trypsinized, sedimented by brief centrifugation (3,000 rpm for 10 min) and the cell pellets are washed with a buffer containing cold thymidine and the radioactivity determined using a scintillation counter. The ^3H-thymidine incorporation is expressed as a mean decrease in cpm of >2 SD from the mean of control cells for each plate. […] After developing the autoradiographs in D-19 (15° C.) and fixation, culture plates are stained with H &E. Cultures are examined under a light microscope and the number of cells showing silver grains in the nuclei from 10 selected fields on the culture plate are counted. […]"}}, "note": "“Also recorded” adds a separate entry of the source."}
{"smiles": "CC[C@H](C)[C@H](NC(=O)[C@H](CC(=O)O)NC(=O)[C@H](CC(C)C)NC(=O)[C@H](Cc1c[nH]cn1)NC(=O)[C@@H]1CSSC[C@H](N)C(=O)N[C@@H](CO)C(=O)N[C@H]2CSSC[C@H](NC(=O)[C@H](CCC(=O)O)NC(=O)[C@H](CCCCN)NC(=O)[C@H](CC(=O)O)NC(=O)[C@H](CCSC)NC(=O)[C@H](CC(C)C)NC(=O)[C@H](CO)NC(=O)[C@H](CO)NC2=O)C(=O)N[C@@H](C(C)C)C(=O)N[C@@H](Cc2ccc(O)cc2)C(=O)N[C@@H](Cc2ccccc2)C(=O)N1)C(=O)N[C@H](C(=O)N[C@@H](Cc1c[nH]c2ccccc12)C(=O)O)[C@@H](C)CC", "note": "[ET-1, Endothelin-1]", "values": [{"measurement": "EdU staining (newly synthesized DNA) in cultured urothelial cells", "setting": "[1]", "result": "significant decrease"}, {"measurement": "effect on cell growth of cultured human urothelial cells", "setting": "[2]", "result": "inhibited; also recorded: inhibition"}, {"measurement": "inhibition of growth of rabbit primary urothelial cells", "setting": "[3]", "result": "30-40%"}]}
